What all share (assay type): biochemical
In test [1] the target is T1, human 20S proteasome (hCP), ChT-L activity.
T1 construct: purchased Boston Biochem (Cambridge, MA, USA)
As to the kind of experiment: ChT-L peptidase activity of isolated hCP (Suc-LLVY-AMC fluorogenic substrate). As to conditions: hCP 2 nM, 1 h preincubation with ions, Tris 25 mM pH 7.6, 37 °C, no SDS; read-out: IC50 ChT-L. The source says:
(§1) Purified human 20S proteasome (hCP) and the fluorogenic substrates Suc-LLVY-AMC, Z-Leu-Leu-Glu-AMC, and Ac-Arg-Leu-Arg-AMC used to assay the ChT-L, T-L, and C-L activity, were from Boston Biochem (Cambridge, MA, USA). Bathocuproinedisulfonic acid disodium salt (BCS), dithiothreitol (DTT), N-Acetyl-L-Cysteine (NAC), Sodium dodecylsulphate (SDS) as well as CuCl2 and Zn(NO3)2 were from Sigma-Aldrich (St. Louis, MO). Proteasome inhibitors Epoxomicin were obtained from Enzo Life Science. Wild type 20S proteasome isolated from Saccharomices Cerevisiae (yCP) and a mutant (α3ΔN) where nine residues of the N-terminal tail of the α3 subunit are deleted to provide a permanently open-gate conformations were isolated as described elsewhere.
(§2) Peptidase activities of hCP (2 nM) were assayed on in 50 μL Tris 25 mM pH 7.6, at 37 °C with 100 μM of the fluorogenic substrate. hCP was incubated with Cu(II)/Zn(II) ions for 1 h prior activity assays. The fluorescence signal activated by peptide cleavage was recorded at 440 nm (excitation at 360 nm) for 45 min, by a Varioskan (Thermo^©) plate reader in 384 multiwell plates. Three replicates were performed for each data point. Data were reported as normalized percentages of residual activity. The potency (IC50) was calculated from the value of the dose response plot corresponding at a fractional activity of 50%. The IC50 values were determined using a non linear fit of experimental data in according to equation: […]
(§3) The midpoint of this function occurs at a fractional activity value of 50%, corresponding to half inhibition of the target enzyme. The IC50 values and their standard errors were deduced from the fitting. To evaluate if copper is a reversible PI, we measured the ChT-L activity of hCP incubated with Cu(II) (2.20 μM) before and after addition of an equimolar amount of EDTA.

In test [2] the target is T2, human 20S proteasome (hCP), C-L activity.
T2 construct: purchased Boston Biochem (Cambridge, MA, USA)
As to the kind of experiment: C-L peptidase activity of isolated hCP (fluorogenic substrate). As to conditions: hCP 2 nM, 1 h preincubation with ions, Tris 25 mM pH 7.6, 37 °C, no SDS; read-out: IC50 C-L.
Text: as §1, §2, §3

For test [3], the target named is T3, human 20S proteasome (hCP).
T3 construct: purchased Boston Biochem (Cambridge, MA, USA)
Put plainly: Peptidase activities of isolated hCP, all three (ChT-L, T-L, C-L). The settings on record: T-L and C-L of hCP, no SDS, read-out: IC50 values, range over the three peptidase activities.
Text: as §1
as §2, with “The potency (IC50) was calculated from the value of the dose response plot corresponding at a fractional activity of 50%.” left out

The target of test [4] is T4, human 20S proteasome (hCP), T-L activity.
T4 construct: purchased Boston Biochem (Cambridge, MA, USA)
As to the kind of experiment: T-L peptidase activity of isolated hCP (fluorogenic substrate). As to conditions: hCP 2 nM, 1 h preincubation with ions, Tris 25 mM pH 7.6, 37 °C, no SDS; read-out: IC50 T-L.
Text: as §1, §2, §3

As usually defined, the IC50 is the concentration needed to halve the response being measured. As to `O=[N+]([O-])[O-].O=[N+]([O-])[O-].[Zn+2]` [Zn(II), Zn(NO3)2, reference compound], the IC50 in test [1] was 5.99 µM; in test [2], 5.84 µM; in test [3], 4.16 to 5.99 µM; in test [4], 4.16 µM.

(Values after PMC5025780, “Copper(II) ions affect the gating dynamics of the 20S proteasome: a molecular and in cell study” (Scientific Reports, 2016).)
